The values below come from ChEMBL document CHEMBL6182888, “Design, synthesis, and biological activity study of 6,7-dimethoxy-1,2,3,4-tetrahydroisoquinoline derivatives against multidrug resistance in Eca109/VCR cells” (Eur J Med Chem, 2025).

The subject of one experiment is Eca-109/VCR. Briefly: Cytotoxicity against human Eca-109/VCR cells assessed as reduction in cell viability at 5.0 uM incubated for 48 hrs by CCK-8 assay relative to control. The class given is functional. For orientation: Formazan colour is commonly taken as a measure of viable cells.
Experiment [1] is described as follows: Reversal fold, ratio of vincristine IC50 to vincristine IC50 in presence of test compound for reversal of drug resistance in human Eca-109/VCR cells at 5 uM incubated for 48 hrs by CCK-8 assay. The class given is functional.

For `COc1cc2c(cc1OC)C(Cc1ccc(OCC3CCCCC3)c(OC)c1)N(C)CC2` (stereo not drawn), the “Cell viability (% of control)” value with Eca-109/VCR is given as 87.7%. In experiment [1], the “Ratio IC50” value was determined as 280.
Taken in the same sequence, the figures for `COc1cc2c(cc1OC)C(Cc1ccc(OC)c(OS(=O)(=O)c3ccccc3[N+](=O)[O-])c1)N(C)CC2` (stereo not drawn) were 102% and 253.3.
Taken in the same sequence, the figures for `CCCCCCCCOc1cc(CC2c3cc(OC)c(OC)cc3CCN2C)ccc1OC` (stereo not drawn) were 95.3% and 159.
Taken in the same sequence, the figures for `COc1cc2c(cc1OC)C(Cc1ccc(OCCCc3ccccc3)c(OC)c1)N(C)CC2` (stereo not drawn) were 103.3% and 162.4.
On to `CCCCCCCCOc1ccc(CC2c3cc(OC)c(OC)cc3CCN2C)cc1OC` (stereo not drawn), for which, in the experiment on Eca-109/VCR, the “Cell viability (% of control)” value is reported as 94.7%. Besides, the “Ratio IC50” value in experiment [1] came out at 82.6.
Taken in the same sequence, the figures for `COc1cc2c(cc1OC)C(Cc1ccc(OC)c(OS(=O)(=O)c3ccccc3F)c1)N(C)CC2` (stereo not drawn) were 98.9% and 16.5.
The matching figures for `COc1cc2c(cc1OC)C(Cc1ccc(OS(=O)(=O)c3ccccc3F)c(OC)c1)N(C)CC2` (stereo not drawn): 98.2% and 274.3.
The matching figures for `COC(=O)c1sccc1S(=O)(=O)Oc1ccc(CC2c3cc(OC)c(OC)cc3CCN2C)cc1OC` (stereo not drawn): 101.9% and 182.2.
Take `COc1cc2c(cc1OC)C(Cc1ccc(OC)c(OS(=O)(=O)c3ccc(C#N)cc3)c1)N(C)CC2` (stereo not drawn): in the experiment with Eca-109/VCR, the “Cell viability (% of control)” value amounted to 96%. Also, the “Ratio IC50” value in experiment [1] stood at 235.4.
Taken in the same sequence, the figures for `COc1cc2c(cc1OC)C(Cc1ccc(OC)c(OS(=O)(=O)c3ccc([N+](=O)[O-])cc3)c1)N(C)CC2` (stereo not drawn) were 101.5% and 141.5.
Taken in the same sequence, the figures for `C=CCCCCOc1cc(CC2c3cc(OC)c(OC)cc3CCN2C)ccc1OC` (stereo not drawn) were 98.2% and 15.2.
Consider `COc1cc2c(cc1OC)C(Cc1ccc(OCc3ccccc3)c(OC)c1)N(C)CC2` (stereo not drawn), for which the “Cell viability (% of control)” value in the experiment on Eca-109/VCR is 101.4%. Moreover, the “Ratio IC50” value in experiment [1] is given as 80.3.
Turning to `C=CCCCCOc1ccc(CC2c3cc(OC)c(OC)cc3CCN2C)cc1OC` (stereo not drawn), the “Cell viability (% of control)” value in the experiment on Eca-109/VCR is on record as 103.4%. Further, the “Ratio IC50” value in experiment [1] was found to be 1.9.
The matching figures for `COc1cc2c(cc1OC)C(Cc1ccc(OC)c(OCCCc3ccccc3)c1)N(C)CC2` (stereo not drawn): 96.9% and 124.1.
The matching figures for `COc1cc2c(cc1OC)C(Cc1ccc(OC)c(OS(=O)(=O)c3ccccc3)c1)N(C)CC2` (stereo not drawn): 102.6% and 24.
Taken in the same sequence, the figures for `COc1cc2c(cc1OC)C(Cc1ccc(OC)c(OCc3ccc(Br)cc3)c1)N(C)CC2` (stereo not drawn) were 97.8% and 158.
Turning to `COc1cc2c(cc1OC)C(Cc1ccc(OS(=O)(=O)Cc3ccccc3)c(OC)c1)N(C)CC2` (stereo not drawn), the “Cell viability (% of control)” value with Eca-109/VCR was found to be 102.6%. For the same molecule, the “Ratio IC50” value in experiment [1] is reported as 171.6.
In the case of `COc1cc2c(cc1OC)C(Cc1ccc(OC)c(OCc3ccc(Cl)cc3Cl)c1)N(C)CC2` (stereo not drawn), the “Cell viability (% of control)” value in the experiment with Eca-109/VCR is on record as 55.4%. Moreover, the “Ratio IC50” value in experiment [1] came out at 412.3.
`COc1cc2c(cc1OC)C(Cc1ccc(OCc3ccc(Br)cc3)c(OC)c1)N(C)CC2` (stereo not drawn): the “Cell viability (% of control)” value in the experiment on Eca-109/VCR was found to be 91.1%. The “Ratio IC50” value in experiment [1] came out at 201.2.
